Assay results reported in publication PMC10321576, “Cyclic peptides target the aromatic cage of a PHD-finger reader domain to modulate epigenetic protein function” (Chemical Science, 2023).
Peptide text beside a SMILES is read from it.

Key:
KDM7B PHD = target: T1, KDM7B PHD (Homo sapiens, UniProt Q9UPP1); assay: ITC binding
T1 construct: KDM7B 1-66; made in house
T1 sequence (Q9UPP1 1-66 isoform Q9UPP1-2): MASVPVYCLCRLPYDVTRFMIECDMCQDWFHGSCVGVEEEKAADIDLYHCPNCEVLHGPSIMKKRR
Method: (§1) Figure S10. ITC results: Tabulated values from 1:1 binding model and conditions
(§2) ITC buffer = 50 mM HEPES, 100 mM NaCl, pH 7.4, 0.2 µm filtered), at 25 °C. Dual = PHD+JmjC. HisTrx
(§3) = His 6+thioredoxin tag, GST = glutathione S -transferase tag, ZB = Z -basic tag. Syringe contained
(§4) peptide solution in buffer. Cell contained protein solution in buffer.
(§5) (1 picture or pasted object on this page, not shown here)

KDM7B Dual = target: T2, KDM7B Dual (Homo sapiens, UniProt Q9UPP1); assay: ITC binding
T2 construct: Dual = PHD+JmjC; made in house
T2 sequence (Q9UPP1 37-483 limits assumed): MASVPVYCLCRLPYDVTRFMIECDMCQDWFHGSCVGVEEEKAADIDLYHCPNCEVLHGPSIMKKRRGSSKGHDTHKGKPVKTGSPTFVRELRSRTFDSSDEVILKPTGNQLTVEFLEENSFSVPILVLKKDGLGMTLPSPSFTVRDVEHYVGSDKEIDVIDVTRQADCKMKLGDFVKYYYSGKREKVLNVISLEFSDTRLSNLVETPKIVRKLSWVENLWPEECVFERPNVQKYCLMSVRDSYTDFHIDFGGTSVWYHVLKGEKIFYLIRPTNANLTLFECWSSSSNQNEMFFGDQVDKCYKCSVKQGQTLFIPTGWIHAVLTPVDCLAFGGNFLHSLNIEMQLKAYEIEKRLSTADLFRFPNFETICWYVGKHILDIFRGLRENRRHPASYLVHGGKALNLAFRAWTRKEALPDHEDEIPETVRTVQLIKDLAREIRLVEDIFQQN
Method: as §1, §2, §3, §4, §5

KDM7A PHD = target: T3, KDM7A PHD (Homo sapiens, UniProt Q6ZMT4); assay: ITC binding
T3 construct: KDM7A 38-98; made in house
T3 sequence (Q6ZMT4 38-98): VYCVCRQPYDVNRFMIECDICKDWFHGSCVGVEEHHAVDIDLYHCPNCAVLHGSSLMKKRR
Method: as §1, §2, §3, §4, §5

KDM7B PHD-finger = target: T4, KDM7B PHD-finger (Homo sapiens, UniProt Q9UPP1); assay: Protein NMR 1H-15N HSQC chemical shift perturbation; format: binding; conditions: Free PHD vs PHD+peptide
T4 construct: KDM7B 1-66; His-tag (C); made in house
T4 sequence (Q9UPP1 1-66 isoform Q9UPP1-2): T1 sequence (Q9UPP1 1-66 isoform Q9UPP1-2)
From the text: To better elucidate OC9 interactions at a single residue level, we conducted protein NMR studies using isotopically labelled PHD-finger.[48] Comparison of ^1H–^15N HSQC spectra for isotopically labelled apo and OC9-bound protein (Fig. 4a), independently assigned using ^13C,^15N 3D experiments (Fig. S21, NMR ESI ^†), identified 24 out of 66 protein residues with significant (standard deviation, s > 1) chemical shift perturbation (CSP, Δδ) of their backbone amides (Fig. 4b).
(a) ^1H–^15N HSQC of KDM7B PHD-finger in the apo (black) or bound forms with OC9 (purple, 1 : 1) or H3_1–21K4me3 (green, 3 : 1). (b) ^1H and ^15N chemical shift changes for apo vs. + OC9 were combined and weighted to give chemical shift perturbation (CSP) (Δδ) values. Standard deviation (σ) of Δδ are indicated (>1 pink, >2 purple). (c) TALOS+ predicts similar secondary structure elements in apo and OC9-bound solution protein complexes (light grey) to those found in PDB ID 3KV4 (dark grey). […] (e) Shielded ^1H-NMR signals centred around −0.5 ppm belonging to the OC9 V10 γ-methyl groups are observed in some OC9–PHD complexes, but not in apo protein, or complexes with OC9 V10A and OC9 V10DV. The V10^OC9 γ-methyl signals have NOE interactions (black semi-circles) with the W29^PHD indole, which itself is shielded upon binding of OC9 (indicated by ΔδH values).

[1] = 50 mM HEPES, 100 mM NaCl, pH 7.4, 25 °C, 1:1 binding model

Kd (KDM7B PHD; [1]): 11.7 nM
ITC ΔH, KDM7B PHD (KDM7B PHD; 25 °C): -46.2 ± 1.2 kJ mol -1
ITC N, KDM7B PHD (KDM7B PHD; stoichiometry): 0.99 ± 0.01
affinity of OC9 against the KDM7 PHD-fingers greater than the natural histone peptide ligand (KDM7B PHD; vs H3_1–21K4me3): at least 10 fold
Kd (KDM7B Dual; [1]): 10.5 nM
ITC ΔH, KDM7B Dual (KDM7B Dual; 25 °C): -46.0 ± 1.5 kJ mol -1
ITC N, KDM7B Dual (KDM7B Dual; stoichiometry): 0.95 ± 0.02
Kd (KDM7A PHD; [1]): 33.4 nM
ITC ΔH, KDM7A PHD (KDM7A PHD; 25 °C): -46.0 ± 1.3 kJ mol -1
ITC N, KDM7A PHD (KDM7A PHD; stoichiometry): 0.71 ± 0.01
CSP Trp side chain (KDM7B PHD-finger; Trp side chain 1H-15N): 0.6107
CSP Ala2 (KDM7B PHD-finger; residue Ala2 amide 1H-15N): 0.0035
CSP Ala42 (KDM7B PHD-finger; residue Ala42 amide 1H-15N): 0.4429
CSP Ala43 (KDM7B PHD-finger; residue Ala43 amide 1H-15N): 0.4556
CSP Arg11 (KDM7B PHD-finger; residue Arg11 amide 1H-15N): 0.0082
CSP Arg18 (KDM7B PHD-finger; residue Arg18 amide 1H-15N): 0.1460
CSP Arg65 (KDM7B PHD-finger; residue Arg65 amide 1H-15N): 0.0120
CSP Arg66 (KDM7B PHD-finger; residue Arg66 amide 1H-15N): 0.0057
CSP Asn52 (KDM7B PHD-finger; residue Asn52 amide 1H-15N): 0.0450
CSP Asp15 (KDM7B PHD-finger; residue Asp15 amide 1H-15N): 0.2640
CSP Asp24 (KDM7B PHD-finger; residue Asp24 amide 1H-15N): 0.0779
CSP Asp28 (KDM7B PHD-finger; residue Asp28 amide 1H-15N): 0.1748
CSP Asp44 (KDM7B PHD-finger; residue Asp44 amide 1H-15N): 0.1350
CSP Asp46 (KDM7B PHD-finger; residue Asp46 amide 1H-15N): 0.1724
CSP Cys8 (KDM7B PHD-finger; residue Cys8 amide 1H-15N): 0.2344
CSP Cys10 (KDM7B PHD-finger; residue Cys10 amide 1H-15N): 0.0550
CSP Cys23 (KDM7B PHD-finger; residue Cys23 amide 1H-15N): 0.1441
CSP Cys26 (KDM7B PHD-finger; residue Cys26 amide 1H-15N): 0.1542
CSP Cys34 (KDM7B PHD-finger; residue Cys34 amide 1H-15N): 0.0336
CSP Cys50 (KDM7B PHD-finger; residue Cys50 amide 1H-15N): 0.0486
CSP Cys53 (KDM7B PHD-finger; residue Cys53 amide 1H-15N): 0.0638
CSP Gln27 (KDM7B PHD-finger; residue Gln27 amide 1H-15N): 0.1502
CSP Glu22 (KDM7B PHD-finger; residue Glu22 amide 1H-15N): 0.1442
CSP Glu38 (KDM7B PHD-finger; residue Glu38 amide 1H-15N): 0.1925
CSP Glu39 (KDM7B PHD-finger; residue Glu39 amide 1H-15N): 0.2336
CSP Glu40 (KDM7B PHD-finger; residue Glu40 amide 1H-15N): 0.1019
CSP Glu54 (KDM7B PHD-finger; residue Glu54 amide 1H-15N): 0.0569
CSP Gly32 (KDM7B PHD-finger; residue Gly32 amide 1H-15N): 0.1798
CSP Gly36 (KDM7B PHD-finger; residue Gly36 amide 1H-15N): 0.1053
CSP Gly58 (KDM7B PHD-finger; residue Gly58 amide 1H-15N): 0.0436
CSP His31 (KDM7B PHD-finger; residue His31 amide 1H-15N): 0.2040
CSP His49 (KDM7B PHD-finger; residue His49 amide 1H-15N): 0.0826
CSP His57 (KDM7B PHD-finger; residue His57 amide 1H-15N): 0.0542
CSP Ile21 (KDM7B PHD-finger; residue Ile21 amide 1H-15N): 0.1523
CSP Ile45 (KDM7B PHD-finger; residue Ile45 amide 1H-15N): 0.1111
CSP Ile61 (KDM7B PHD-finger; residue Ile61 amide 1H-15N): 0.1500
CSP Leu9 (KDM7B PHD-finger; residue Leu9 amide 1H-15N): 0.2010
CSP Leu12 (KDM7B PHD-finger; residue Leu12 amide 1H-15N): 0.1857
CSP Leu47 (KDM7B PHD-finger; residue Leu47 amide 1H-15N): 0.0914
CSP Leu56 (KDM7B PHD-finger; residue Leu56 amide 1H-15N): 0.0558
CSP Lys41 (KDM7B PHD-finger; residue Lys41 amide 1H-15N): 0.1054
CSP Lys63 (KDM7B PHD-finger; residue Lys63 amide 1H-15N): 0.1309
CSP Lys64 (KDM7B PHD-finger; residue Lys64 amide 1H-15N): 0.0270
CSP Met20 (KDM7B PHD-finger; residue Met20 amide 1H-15N): 0.3618
CSP Met25 (KDM7B PHD-finger; residue Met25 amide 1H-15N): 0.6758
CSP Met62 (KDM7B PHD-finger; residue Met62 amide 1H-15N): 0.0955
CSP Phe19 (KDM7B PHD-finger; residue Phe19 amide 1H-15N): 0.3281
CSP Phe30 (KDM7B PHD-finger; residue Phe30 amide 1H-15N): 0.2483
CSP Ser3 (KDM7B PHD-finger; residue Ser3 amide 1H-15N): 0.0045
CSP Ser33 (KDM7B PHD-finger; residue Ser33 amide 1H-15N): 0.1228
CSP Ser60 (KDM7B PHD-finger; residue Ser60 amide 1H-15N): 0.0469
CSP Thr17 (KDM7B PHD-finger; residue Thr17 amide 1H-15N): 0.2705
CSP Trp29 (KDM7B PHD-finger; residue Trp29 amide 1H-15N): 0.3903
CSP Tyr7 (KDM7B PHD-finger; residue Tyr7 amide 1H-15N): 0.2658
CSP Tyr14 (KDM7B PHD-finger; residue Tyr14 amide 1H-15N): 0.3173
CSP Tyr48 (KDM7B PHD-finger; residue Tyr48 amide 1H-15N): 0.7926
CSP Val4 (KDM7B PHD-finger; residue Val4 amide 1H-15N): 0.0230
CSP Val6 (KDM7B PHD-finger; residue Val6 amide 1H-15N): 0.1610
CSP Val16 (KDM7B PHD-finger; residue Val16 amide 1H-15N): 0.3656
CSP Val35 (KDM7B PHD-finger; residue Val35 amide 1H-15N): 0.0666
CSP Val37 (KDM7B PHD-finger; residue Val37 amide 1H-15N): 0.0847
CSP Val55 (KDM7B PHD-finger; residue Val55 amide 1H-15N): 0.0250
Structure (SMILES): CC(C)C[C@@H]1NC(=O)[C@H](Cc2ccc(O)cc2)NC(=O)[C@H](Cc2ccc(O)cc2)NC(=O)CSC[C@@H](C(N)=O)NC(=O)[C@H]([C@@H](C)O)NC(=O)[C@H](CCCNC(=N)N)NC(=O)[C@H](Cc2ccccc2)NC(=O)[C@H](C(C)C)NC(=O)[C@H](CO)NC(=O)[C@@H]2CCCN2C(=O)[C@H](Cc2ccc(O)cc2)NC(=O)[C@@H]2CCCN2C(=O)[C@H](Cc2c[nH]cn2)NC(=O)[C@H]([C@@H](C)O)NC1=O [OC9] (HELM PEPTIDE1{[O=C(C[*:3])[*:2]].Y.Y.L.T.H.P.Y.P.S.V.F.R.T.C.[am]}$PEPTIDE1,PEPTIDE1,1:R3-15:R3$$$V2.0)
